Assay results reported in US9511072B2, “Methods of modulating cell proliferation and cyst formation in polycystic kidney and liver diseases” (The Medical College of Wisconsin, Inc., priority 2006, dated 2016).

Legend:
[1] = test system: REC11 cells; test: BrdU proliferation of EGF-stimulated REC11 cystic renal epithelial cells; type: cell-based, mouse; details: 36 hrs, after EGF 25 ng/ml for 6 hours
Excerpt: REC11 cystic cell line is a conditionally immortalized epithelial collecting tubule (CT) cell line derived from the cystic kidneys of the BPK mouse model of human ARPKD crossed to the ImmortoMouse. The BPK mouse as a human ARPKD model has been described in Nauta J. et al., Pediatr Nephrol 1993, 7:163-172 and Nauta J. et al., Pediatr Res 1995, 37:755-763. The procedures for immortalization, cell isolation, cell culture and the complete phenotypic characterization of this cell line have been described in detail in Sweeney W. E. et al., Am J Physiol C Physiol 2001, 281:C1695-705. All analysis and experiments were performed on REC11 cells grown for a minimum 6 days under non-permissive conditions to eliminate residual Large T.
Proliferation of REC11 cells was stimulated by exposure of the cells for 6 hours with EGF (25 ng/ml). Next, the cells were treated with vehicle, HET0016 (10 μM, a 20-HETE synthesis inhibitor), HET0016 (20 μM), DDMS (10 μM, a 20-HETE synthesis inhibitor), or WIT-002 (10 μM, a 20-HETE antagonist) for 36 hrs, pulsed with BrdU, and then stained for BrdU labeled cells to determine the degree of cell proliferation. […] Cells treated with a higher dose of HET0016 (20 μM) (column C) reduced proliferation by 75% (p<0.020). Cells treated with another chemically dissimilar inhibitor of the synthesis of 20-HETE, DDMS (10 μM) (column D), reduced proliferation by 47% (p<0.05). Cells treated with WIT-002 (10 μM) (column E) reduced proliferation by 25%.

[2] = test system: cystic BPK cells; test: BrdU incorporation in cystic BPK cells; type: cell-based, mouse; details: 36 hours, vehicle 118
Method: To determine the level of proliferation in the cystic BPK cells, chemically dissimilar inhibitors of cytochrome P450 4A (CYP4A) and 4F (CYP4F) inhibitors, specifically HET-0016 (10 and 20 μM) and DDMS (10 μM), were incubated for 36 hours with the BPK cells. Three hours prior to the harvesting of the cells, 5-bromo-2′-deoxyuridine (BrdU) at a concentration of 30 μM was added to determine the level of cell cycle inhibition. The cells were subsequently methanol fixed and BrdU-positive cells were identified by immunohistology with biotinylated monoclonal anti-BrdU antibody (Zymed, South San Francisco, Calif.). Data were expressed as the percentage of BrdU-labeled cells per 500 counted cells.

[3] = test system: cystic PCK CT cells; test: BrdU proliferation of primary cystic PCK collecting tubule cells; type: cell-based, rat; details: 10 μM, 36 hours; vehicle 28.5%±1%
Method: Renal CT cells from the PCK rat were isolated as described in Sweeney W. E. et al., Am J Physiol C Physiol, 2001, 281:C1695-705, using monoclonal F-13 a principal cells specific surface marker (Fejes-Toth N et al., J Tiss Cult Meth 1991, 13:179-184).
To determine the level of proliferation in the cystic PCK CT cells, the cells were incubated with HET-0016 (10 μM) or vehicle for 36 hours. Three hours prior to the harvesting of the cells, 5-bromo-2′-deoxyuridine (BrdU) at a concentration of 30 μM was added to determine the level of cell cycle inhibition. The cells were subsequently methanol fixed and BrdU-positive cells were identified by immunohistology with biotinylated monoclonal anti-BrdU antibody (Zymed, South San Francisco, Calif.). Data were expressed as the percentage of BrdU-labeled cells per 500 counted cells. In the vehicle treated group, 28.5%±1% (n=3) were labeled with BrdU. In the HET-0016 treated group, 10.8%±1% (n=3) were labeled with BrdU.

[4] = target: T1, Cyp4a12 (Mus musculus, UniProt Q91WL5); test: 20-HETE production assay with lysates of Cyp4a12 over-expressing Balb/C cells; type: biochemical, murine; details: 1 μM during the 20-HETE production assay
T1 construct: Murine full-length Cyp4a10 (cDNA clone MGC:58977) and Cyp4a12 (cDNA clone MGC:25972) cDNA clones were purchased from ATCC; expressed in transfected cells; host or cells: conditionally immortalized non-cystic Balb/C (+/+) mouse renal epithelial cells transduced with the lentiviral vector pHR(+)c.Ub.CYP4A12.R(-)W(+); protein lysates
T1 sequence (Q91WL5 38-508): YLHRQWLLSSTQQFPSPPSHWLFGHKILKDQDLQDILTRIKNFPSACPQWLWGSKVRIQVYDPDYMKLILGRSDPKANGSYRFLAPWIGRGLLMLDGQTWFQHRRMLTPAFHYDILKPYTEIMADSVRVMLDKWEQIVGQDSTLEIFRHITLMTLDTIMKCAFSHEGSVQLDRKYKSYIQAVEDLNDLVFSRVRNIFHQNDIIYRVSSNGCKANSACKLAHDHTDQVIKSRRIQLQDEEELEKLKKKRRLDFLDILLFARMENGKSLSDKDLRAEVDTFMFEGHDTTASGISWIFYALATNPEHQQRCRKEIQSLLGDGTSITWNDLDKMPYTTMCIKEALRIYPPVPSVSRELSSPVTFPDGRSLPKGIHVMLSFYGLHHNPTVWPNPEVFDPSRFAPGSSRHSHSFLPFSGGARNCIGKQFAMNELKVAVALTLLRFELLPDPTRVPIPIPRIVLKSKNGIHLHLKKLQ
Method: Microsomes were isolated from the cystic BPK and non-cystic Balb/C mouse kidneys as described by Ito O et al. (Am J Physiol Regul Integr Comp Physiol, 280:R822-30, 2001). For the BPK and Balb/C cells, protein lysates were harvested by homogenization and subsequent sonication of the cell pellets. For the 20-HETE production assay, the isolated protein (500 μg) was incubated in 0.5 mL of 100 mM potassium phosphate buffer containing 40 μM cold arachidonic acid and 2 mM NADPH. In some samples, the 20-HETE synthesis inhibitor, HET-0016, was added at a concentration of 1 μM. The reaction was incubated at 37° C. and equilibrated with 100% O2 for 30 minutes. The reaction was stopped by acidification to pH 3.5 with 1M formic acid. The lipids were extracted in the presence of 20-HETE-d6 (2 ng) using 3:1 ethyl acetate:water and dried down under nitrogen. The samples were reconstituted in 1:1 methanol:water and the production of 20-HETE was measured using a liquid chromatograph-triple quadrupole mass spectrometer (ABI 3000, Applied Biosystems, Inc., Foster City, Calif.) as described in Williams J M et al. Hypertension, 49:687-94, 2007.
The functional activity of the cytochrome P450 4A isoforms was determined using liquid chromatography coupled to mass spectrometry in the 20-HETE production assay (FIG. 7B). […]

## N-hydroxy-N-(4-butyl-2-methylphenyl)-formamidine [HET0016]
[1]; 10 μM
  reduction of proliferation (BrdU labeled cells) vs vehicle: 66%
[1]; 20 μM
  reduction of proliferation (BrdU labeled cells) vs vehicle: 75%
[2]; 10 μM
  BrdU-positive cells per 500 total cells counted: 52 BrdU(+) cells
[2]; 20 μM
  BrdU-positive cells per 500 total cells counted: 38 BrdU(+) cells
[3]
  cells labeled with BrdU (per 500 counted cells): 10.8%±1%
[4]
  inhibition of 20-HETE synthesis by over-expressed Cyp4a12: > 70%
